The test relates to human PBMC, HIV-1 X4 replication, supernatant RT activity. In words: anti-HIV-1 activity in primary human blood cells – cell-based, human PBMC, set 3, dose response (AID 504625).

For `Cc1c2c(=O)n(-c3nc4ccccc4s3)nc-2cc(O)n1Cc1ccccc1`, the IC50 (commonly the concentration needed to halve the response being measured) is 1.51 µM.

The record behind these values is PubChem BioAssay AID504625 (Southern Research Specialized Biocontainment Screening …, 2011).
